Test [1] relates to KRas G12D mutant. The experiment in a line: Ras GTP Binding Domain Inhibition Assay, KRas G12D mutant. The conditions noted are these: at 20 μM; for KRas G12D mutant + SOS: % inh.: with SOS; for KRas G12D mutant: % inh.: without SOS. As for the experimental part:
(§1) A Ras Superfamily Activity Assay (as disclosed in International Application No. PCT/US2018/038613, filed Jun. 20, 2018, which is incorporated by reference in its entirety) was used as a specific assay to evaluate compounds against the following for the following Ras Superfamily proteins: KRas wild type, KRas Q61H mutant, KRas G12C mutant, KRas G12D mutant, Rac-1, and Rho-A.
(§2) Buffer-I: • 25 mM Tris-HCl, pH 7.4 • 27 mM KCl • 137 mM NaCl • 1 mM MgCl2 • 1 mM DTT
(§3) Buffer-IL: • 50 mM Tris-HCl, pH 7.0 • 1 mM MgCl2 • 1 mM DTT
(§4) The small GTPases proteins: KRas wild type. KRas Q61H mutant, KRas G12C mutant, KRas G12D mutants, Rac-1, and Rho-A were expressed as His-tagged proteins. In addition, the Guanosine nucleotide Exchange Factor (GEF) Sos protein (residues 556-1049) was expressed as a His-tagged protein. In cells, the guanine nucleotide exchange factor Sos protein promotes activation of Ras proteins by stimulating an exchange of GDP for GTP. The inclusion of Sos to the Ras GTP binding domain inhibition assay may be considered as an alternative representation of physiological cellular conditions for evaluating the inhibitory activity of some of the tested small molecules.
(§5) For the assay, all purified small GTPases proteins were diluted in Buffer-I or Buffer-II to a final concentration of 10-30 μg/mL. 200 μL of each diluted protein was added to a nickel-coated 96-well plate and incubated overnight at 4° C. Then the protein solution was discarded and 200 μL of Buffer-I or Buffer-II was added to each well in the presence of 1% DMSO. Compounds to be tested were added to the protein-coated wells at final concentration of 20 μM, and incubated for 3 hours at room temperature with and without 10-30 μg/mL of Sos added to the final hour of the incubation. When performing IC50 measurements a serial dilution of all tested concentrations was added. Then Cy3-GTP or Cy5-GTP was added to each well to a final concentration of 100 nM. The labeled GTP was incubated for 45 minutes at room temperature. Following GTP incubation, wells were washed 3× in Buffer-I or Buffer-II and 200 μL of Buffer-I or Buffer-II was added to each well. Following washes, the amount of bound labeled-GTP was measured using a SpectraMax M3 (Molecular Devices).

The subject of test [2] is KRas G12C mutant. Description: Ras GTP Binding Domain Inhibition Assay, KRas G12C mutant. The following applies: at 20 μM; for KRas G12C mutant + SOS: % inh.: with SOS; for KRas G12C mutant: % inh.: without SOS. On the procedure: as §1, §2, §3, §4, §5
For test [3], the system named is KRas wild type. Description: Ras GTP Binding Domain Inhibition Assay, KRas wild type. The following applies: at 20 μM; for KRas wild type + SOS: % inh.: with SOS; for KRas wild type: % inh.: without SOS. On the procedure:
as §1, §2, §3, §4, §5

Test [4] has as its system Rho-A. Description: Ras GTP Binding Domain Inhibition Assay, Rho-A. The following applies: at 20 μM; for Rho-A + SOS: % inh.: with SOS; for Rho-A: % inh.: without SOS. On the procedure:
as §1, §2, §3, §4, §5

As to `COC1CCN(c2nc(-c3nccn3C)nc3sc(-c4ccn(C)n4)c(-c4ccccc4)c23)CC1` [Compound 6, 4-(4-Methoxypiperidin-1-yl)-2-(1-methyl-1H-imidazol-2-yl)-6-(1-methyl-1H-pyrazol-3-yl)-5-phenylthieno[2,3-d]pyrimidine], in test [1] (Table 7), the “KRas G12D mutant + SOS: % inh.” value was “B (B = 26-45% inhibition)” and the “KRas G12D mutant: % inh.” value is reported as “B (B = 26-45% inhibition)”. Besides, in test [1] (Table 8), the “KRas G12D mutant + SOS: % inh.” value was “B (B = 26-45% inhibition)” and the “KRas G12D mutant: % inh.” value is on record as “B (B = 26-45% inhibition)”. In addition, in test [2], the “KRas G12C mutant + SOS: % inh.” value is listed as “C (C = 46-75% inhibition)” and the “KRas G12C mutant: % inh.” value is “B (B = 26-45% inhibition)”. In test [3], the “KRas wild type + SOS: % inh.” value is reported as “B (B = 26-45% inhibition)” and the “KRas wild type: % inh.” value was 0 (0 = 0% inhibition). In test [4], the “Rho-A + SOS: % inh.” value is listed as 0 (0 = 0% inhibition) and the “Rho-A: % inh.” value was 0 (0 = 0% inhibition).

Regarding `COCCCNc1nc(-c2nccn2C)nc2sc(-c3ccccc3)c(-c3ccccc3)c12` [Compound 3, N-(3-Methoxypropyl)-2-(1-methyl-1H-imidazol-2-yl)-5,6-diphenylthieno[2,3-d]pyrimidin-4-amine], in test [1] (Table 7), the “KRas G12D mutant + SOS: % inh.” value is recorded as “A (A = 1-25% inhibition)” and the “KRas G12D mutant: % inh.” value is recorded as “C (C = 46-75% inhibition)”. In addition, in test [1] (Table 8), the “KRas G12D mutant + SOS: % inh.” value was “A (A = 1-25% inhibition)” and the “KRas G12D mutant: % inh.” value is reported as “C (C = 46-75% inhibition)”. In test [2], the “KRas G12C mutant: % inh.” value is “C (C = 46-75% inhibition)”. For the same compound, in test [3], the “KRas wild type + SOS: % inh.” value is “A (A = 1-25% inhibition)” and the “KRas wild type: % inh.” value was “C (C = 46-75% inhibition)”. In addition, in test [4], the “Rho-A: % inh.” value is reported as “C (C = 46-75% inhibition)”.

Regarding `CO[C@@H]1CC[C@H](Nc2nc(-c3nccn3C)nc3sc(-c4ccn(C(C)C)n4)c(-c4ccccc4)c23)C1` [Compound 11, 6-(1-Isopropyl-1H-pyrazol-3-yl)-N-((1S,3R)-3-methoxycyclopentyl)-2-(1-methyl-1H-imidazol-2-yl)-5-phenylthieno[2,3-d]pyrimidin-4-amine], in test [1] (Table 7), the “KRas G12D mutant + SOS: % inh.” value is “C (C = 46-75% inhibition)” and the “KRas G12D mutant: % inh.” value is given as “C (C = 46-75% inhibition)”. In test [1] (Table 8), the “KRas G12D mutant + SOS: % inh.” value is reported as “C (C = 46-75% inhibition)” and the “KRas G12D mutant: % inh.” value is listed as “C (C = 46-75% inhibition)”. Also, in test [2], the “KRas G12C mutant + SOS: % inh.” value is reported as “D (D = 76-100% inhibition)” and the “KRas G12C mutant: % inh.” value was “C (C = 46-75% inhibition)”. In test [3], the “KRas wild type + SOS: % inh.” value is “D (D = 76-100% inhibition)” and the “KRas wild type: % inh.” value is given as “C (C = 46-75% inhibition)”. Moreover, in test [4], the “Rho-A + SOS: % inh.” value was “B (B = 26-45% inhibition)” and the “Rho-A: % inh.” value is listed as “B (B = 26-45% inhibition)”.

As to `COCCNc1nc(-c2nccn2C)nc2sc(-c3ccccc3)c(-c3ccccc3)c12` [Compound 1, N-(2-Methoxyethyl)-2-(1-methyl-1H-imidazol-2-yl)-5,6-diphenylthieno[2,3-d]pyrimidin-4-amine], in test [1] (Table 7), the “KRas G12D mutant + SOS: % inh.” value is listed as “A (A = 1-25% inhibition)” and the “KRas G12D mutant: % inh.” value was “D (D = 76-100% inhibition)”. In test [1] (Table 8), the “KRas G12D mutant + SOS: % inh.” value was “A (A = 1-25% inhibition)” and the “KRas G12D mutant: % inh.” value is “D (D = 76-100% inhibition)”. In test [2], the “KRas G12C mutant: % inh.” value is “C (C = 46-75% inhibition)”. In test [3], the “KRas wild type + SOS: % inh.” value is recorded as “A (A = 1-25% inhibition)” and the “KRas wild type: % inh.” value is on record as “A (A = 1-25% inhibition)”. Besides, in test [4], the “Rho-A: % inh.” value was “C (C = 46-75% inhibition)”.

For the origin of these results see US20240309015A1, “Methods for the Treatment of Fibrotic Disease” (SHY Therapeutics, LLC, priority 2021, published 2024).
